The values below are quoted from earlier work in patent US20080311191A1, “Multi-Layer Tablets and Bioadhesive Dosage Forms” (priority 2004, published 2008).

Read-outs that look alike come from different tables or passages of the source.

Test in data set [1]: not given
This is another data set of the same source.

`Nc1nc2c(ncn2COCCO)c(=O)[nH]1` [Acyclovir, acyclovir]: the water solubility entry is recorded as “moderate”.

As for `CCC(C)n1ncn(-c2ccc(N3CCN(c4ccc(OCC5COC(Cn6cncn6)(c6ccc(Cl)cc6Cl)O5)cc4)CC3)cc2)c1=O` (stereo not shown) [Itraconazole, itraconazole], in data set [1], the GI permeability result is “good” and the water solubility result was “negligible”. For the same compound, in data set [1] (pH<3.5), the “solubility in water at pH<3.5” value was “slightly soluble”.
